Measured values: US11419335B2, “N-arylated analogues and uses thereof” (University of Florida Research Foundation, Incorporated, priority 2016, dated 2022)
Read-outs that look alike come from different tables or passages of the source. Marks after values point to notes of the source that are not given here.

Tests used:
[1] = test system: methicillin-resistant Staphylococcus aureus MRSA-2 (clinical isolate); assay: MIC broth microdilution, MRSA-2; type: cell-based; settings: for MIC: Staphylococcus aureus
Method in brief: (§1)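 Following CLSI guidance, MICs come from broth microdilution in Luria Broth over 0.10 to 100 μM, with about 10^5 cells per well incubated 16 to 18 hours at 37° C.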

MRSA BAA-1707 = assay: MIC broth microdilution, MRSA BAA-1707; type: cell-based, Staphylococcus aureus
Method in brief: (§2)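 Following CLSI, each compound is tested across 0.10–100 μM by two-fold dilution in Luria Broth against ~10^5 freshly grown log-phase cells. MIC is supported by OD600 and reported from three or more independent experiments.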

[2] = test system: methicillin-resistant Staphylococcus epidermidis (MRSE strain ATCC 35984); assay: MIC broth microdilution, MRSE 35984; type: cell-based; settings: for MIC: Staphylococcus epidermidis
Method in brief: as §1

[3] = test system: vancomycin-resistant Enterococcus faecium (VRE strain ATCC 700221); assay: MIC broth microdilution, VRE 700221; type: cell-based
Method in brief: as §1

[4] = test system: Acinetobacter baumannii (ATCC 1794); assay: MIC broth microdilution, A. baumannii 1794; type: cell-based; settings: for MIC: Acinetobacter baumannii, ATCC1794
Method in brief: as §1

[5] = test system: methicillin-sensitive Staphylococcus aureus ATCC 29213; assay: MIC broth microdilution, S. aureus 29213; type: cell-based
Method in brief: as §2

[6] = test system: MRSA-1 (clinical isolate); assay: MIC broth microdilution, MRSA-1; type: cell-based, Staphylococcus aureus
Experimental: (§3) The minimum inhibitory concentration (MIC) for each tested compound was determined by the broth microdilution method as recommended by the Clinical and Laboratory Standards Institute (CLSI). In a 96-well plate, eleven two-fold serial dilutions of each compound were made in a final volume of 100 μL Luria Broth. Each well was inoculated with ˜10^5 bacterial cells at the initial time of incubation, prepared from a fresh log phase culture (OD600 of 0.5 to 1.0 depending on bacterial strain). […] (MIC values were supported by spectrophotometric readings at OD600). DMSO served as our vehicle and negative control in each microdilution MIC assay. DMSO was serially diluted with a top concentration of 1% v/v.
(§4) Each well was inoculated with ˜10^5 bacterial cells at the initial time of incubation, prepared from a fresh log phase culture (OD600 of 0.5 to 1.0 depending on bacterial strain). […] The concentration range tested for each compound during this study was 0.10 to 100 μM. DMSO served as our vehicle and negative control in each microdilution MIC assay. DMSO was serially diluted with a top concentration of 1% v/v. All MIC values were obtained from a minimum of three independent experiments.

[7] = test system: SA-129 (clinical isolate); assay: MIC broth microdilution, SA-129; type: cell-based, Staphylococcus aureus
Experimental: as §3, §4

[8] = test system: SA-147 (clinical isolate); assay: MIC broth microdilution, SA-147; type: cell-based, Staphylococcus aureus
Experimental: as §3, §4

[9] = test system: SA-138 (clinical isolate); assay: MIC broth microdilution, SA-138; type: cell-based, Staphylococcus aureus
Experimental: as §3, §4

[10] = test system: SA-156 (clinical isolate); assay: MIC broth microdilution, SA-156; type: cell-based, Staphylococcus aureus
Experimental: as §3, §4

MRSA BAA-44 = assay: MIC broth microdilution, MRSA BAA-44; type: cell-based, Staphylococcus aureus
Experimental: as §3, §4

[11] = test system: human red blood cells (hRBC); assay: Hemolysis of red blood cells; type: cell-based; settings: for RBC HC50: Table 4, concentration required to lyse 50% of red blood cells
Method in brief: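 hRBCs (2% suspension) exposed to compounds at 0.2–200 μM (ten-point dose-response) for 1 h at 37 °C; after centrifugation, haemoglobin release read as supernatant OD at 405 nm. DMSO set as 0% and Triton X as 100% haemolysis; HC50 from dose-response curves, three independent experiments.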

[12] = test system: Pseudomonas aeruginosa (PAO1); assay: MIC broth microdilution, PAO1; type: cell-based
Method in brief: as §1

[13] = Table 1B, read-out: MIC MRSA BAA-1707
[14] = Table 2A, read-out: MRSA BAA-1707 MIC
[15] = Table 3, read-out: MIC MRSA BAA-1707

## CCCCCCCCCCCCCCCCn1cc[n+](C)c1C.[I-] [Compound 8]
[1]
  MRSA-2 MIC: 1.17^a μM
MRSA BAA-1707; [13]
  MIC: 0.39 µM
MRSA BAA-1707; [14]
  MIC: 0.39 µM
MRSA BAA-1707; [15]
  MIC: 0.39 µM
MRSA BAA-1707; Table 4
  MIC MRSA 1707: 0.39 µM
[2]
  MIC MRSE 35984: 1.17a micromolar
  MIC S. epidermidis MRSE 35984: 1.17^a
  MRSE 35984 MIC: 1.17^a μM
[3]
  MIC E. faecium VRE 700221: 2.35^a
  MIC VRE 700221: 2.35a micromolar
  VRE MIC: 2.35^a μM
[4]
  MIC A. bau. 1794: 12.5 µM
[4]; in µM
  MIC A. baumannii 1794: 12.5
[5]; Table 1B
  MIC: 1.56 µM
[5]; Table 3
  MIC: 1.56 µM
[6]; Table 1B
  MIC: 1.56 µM
[6]; Table 3
  MIC: 1.56 µM
[7]; Table 1B
  MIC: 1.56 µM
[7]; Table 3
  MIC: 1.56 µM
[8]; Table 1B
  MIC SA-147: 1.17^a μM
[8]; Table 3
  MIC SA-147: 1.17^a μM
[9]; Table 1B
  MIC SA-138: 2.35^a μM
[9]; Table 3
  MIC SA-138: 2.35^a μM
[10]; Table 1B
  MIC: 1.56 µM
[10]; Table 3
  MIC: 1.56 µM
MRSA BAA-44; Table 1B
  MIC: 1.56 µM
MRSA BAA-44; Table 3
  MIC: 1.56 µM
[11]; Table 1A
  HC50: 13 µM
[11]
  RBC HC50: 13.0 µM

## CCCCCCCCCCCCCCCCn1cc[n+](Cc2ccccc2)c1C [NH125, 3-benzyl-1-hexadecyl-2-methyl-1H-imidazol-3-ium bromide, reference compound]
[1]; BAA-1707 / MRSA, MRSA-2 and MRSA BAA-1707, read-out: MIC against two MRSA strains
  MIC: 2.35 to 4.69 µM
[1]; MRSA, Table 1, read-out: MIC MRSA-2
  MIC: 4.69 µM
[1]; MRSA, Table 4, read-out: MIC MRSA-2
  MIC: 4.69 µM
[1]; MRSA, Table 3, read-out: MIC MRSA-2
  MIC: 3.13 µM
[1]; Table 1A
  MIC MRSA-2: 4.69^a
MRSA BAA-1707; Staphylococcus aureus, Table 1, read-out: MIC MRSA BAA-1707
  MIC: 2.35 µM
MRSA BAA-1707; Staphylococcus aureus, Table 2, read-out: MRSA BAA-1707 MIC
  MIC: 2.35 µM
MRSA BAA-1707; Staphylococcus aureus, Table 4, read-out: MIC MRSA 1707
  MIC: 2.35 µM
MRSA BAA-1707; Table 3
  MIC MRSA BAA-1707: 2.35^a μM
[2]; Table 1, read-out: MIC MRSE 35984
  MIC: 4.69 µM
[2]; Table 2, read-out: MRSE 35984 MIC
  MIC: 4.69 µM
[2]; Table 1A
  MIC S. epidermidis MRSE 35984: 4.69^a
[2]; Table 4
  MIC MRSE 35984: 4.69a micromolar
[3]; Table 1, read-out: MIC VRE 700221
  MIC: 3.13 µM
[3]; Table 1A
  MIC E. faecium VRE 700221: 3.13 µM
[3]; Table 2, read-out: VRE 700221 MIC
  MIC: 3.13 µM
[3]; Table 4
  MIC VRE 700221: 3.13 µM
[4]; Table 1, read-out: MIC A. baumannii 1794
  MIC: 37.5 µM
[4]; Table 4, read-out: MIC A. bau. 1794
  MIC: 37.5 µM
[4]; Table 1A
  MIC A. baumannii 1794: 37.5^a
[12]; Pseudomonas aeruginosa, PAO1, Table 1
  MIC: > 100 µM
[12]; Table 1A
  MIC PAO1: > 100 µM
[12]; Table 4
  MIC PAO1: >100 µM
[5]; Staphylococcus aureus, ATCC29213, Table 3
  MIC: 4.69 µM
[6]; Staphylococcus aureus, MRSA, Table 3
  MIC: 6.25 µM
[7]; Staphylococcus aureus, Table 3
  MIC: 4.69 µM
[8]; Staphylococcus aureus, Table 3
  MIC: 4.69 µM
[9]; Staphylococcus aureus, Table 3
  MIC: 6.25 µM
[10]; Staphylococcus aureus, Table 3
  MIC: 6.25 µM
MRSA BAA-44; Staphylococcus aureus, Table 3
  MIC: 4.69 µM
[11]
  hemolytic activity: potent hemolytic activities
[11]; human, 1 h, pH 7.2
  HC50: 35.6 µM

## CCCCCCCCCCCCCCCCn1cc[n+](Cc2cccc(F)c2)c1C.[Br-] [Compound 18]
[1]; Table 1A
  MIC MRSA-2: 2.35^a
[1]; Table 1B
  MIC MRSA-2: 2.35^a μM
[1]; Table 2A
  MRSA-2 MIC: 2.35^a μM
[1]; Table 3
  MIC MRSA-2: 2.35^a μM
[1]; Table 4
  MIC MRSA-2: 2.35a micromolar
MRSA BAA-1707; [13]
  MIC: 1.56 µM
MRSA BAA-1707; [14]
  MIC: 1.56 µM
MRSA BAA-1707; [15]
  MIC: 1.56 µM
MRSA BAA-1707; Table 4
  MIC MRSA 1707: 1.56 µM
[2]; Table 1A
  MIC S. epidermidis MRSE 35984: 1.17^a
[2]; Table 2A
  MRSE 35984 MIC: 1.17^a μM
[2]; Table 4
  MIC MRSE 35984: 1.17a micromolar
[3]; Table 1A
  MIC E. faecium VRE 700221: 1.56 µM
[3]; Table 2A
  VRE MIC: 1.56 µM
[3]; Table 4
  MIC VRE 700221: 1.56 µM
[4]; Table 1A, in µM
  MIC A. baumannii 1794: 25
[4]; Table 4
  MIC A. bau. 1794: 25 µM
[12]; Table 1A
  MIC PAO1: > 100 µM
[12]; Table 4
  MIC PAO1: >100 µM
[5]; Table 1B
  MIC S. aureus 29213: 4.69^a μM
[5]; Table 3
  MIC S. aureus 29213: 4.69^a μM
[6]; Table 1B
  MIC: 3.13 µM
[6]; Table 3
  MIC: 3.13 µM
[7]; Table 1B
  MIC: 3.13 µM
[7]; Table 3
  MIC: 3.13 µM
[8]; Table 1B
  MIC SA-147: 2.35^a μM
[8]; Table 3
  MIC SA-147: 2.35^a μM
[9]; Table 1B
  MIC: 3.13 µM
[9]; Table 3
  MIC: 3.13 µM
[10]; Table 1B
  MIC: 3.13 µM
[10]; Table 3
  MIC: 3.13 µM
MRSA BAA-44; Table 1B
  MIC MRSA BAA-44: 2.35^a μM
MRSA BAA-44; Table 3
  MIC MRSA BAA-44: 2.35^a μM
[11]; Table 1A
  HC50: 16.7 µM
[11]
  RBC HC50: 16.7 µM
